Assay results as given in patent publication US20080145316A1, “Skin coating with microbial indicator” (priority 2006, published 2008).

Tests used:
S. aureus [1] = test: Colour change of cured skin sealant film containing indicator dye on contact with S. aureus suspension; conditions: 100 μL S. aureus 10^6 CFU/mL on cured InteguSeal film, dye 200-300 ppm
Procedure: Reichardt's dye (from Sigma-Aldrich Chemical Co. Inc., Milwaukee Wis.) was mixed into 2 grams of InteguSeal® skin sealant (Medlogic Global Ltd., Cornwall, UK) containing an extra 0.2 gram of tributyl o-acetylcitrate placticizer (from Sigma-Aldrich) to give a deep blue solution with 200 ppm concentration of the dye. A drop (25 mg) of the mixture was then placed onto a microscope glass slide (5 cm×7.5 cm) and spread out using a glass rod to give thin coating smear (3 cm×2 cm). After complete cure had occurred (5 minutes) the cured film was exposed to a suspension of S. aureus (gram positive bacteria) at 10^6 CFU/mL (colony forming units). 100 μL of this suspension was placed onto a spot on the cured film and the area observed. In less than 10 seconds the area in contact with the bacteria suspension decolorized, visually indicating the contamination. When a 100 μL sample of the control media broth or water alone was placed on the sealant no color discharge was observed.
A 2 gram blue-purple solution of 300 ppm Chrome Azurol S (from Sigma-Aldrich) in InteguSeal® skin sealant was prepared to give a 300 ppm concentration of the dye. A drop 25 mg of the mixture was placed onto a glass slide and spread using a glass rod to give a thin smear. The sealant was allowed to fully cure (5 minutes). After this time 100 μL suspension of S. aureus at 10^6 CFU/mL was placed on the cure sealant and then visually observed for a color change.
(§1) A 2 gram solution of 300 ppm Phenol Red (from Sigma-Aldrich) in InteguSeal® skin sealant was prepared by mixing the ingredients to give a pale pink-gray liquid. 25 mg of the mixture was then placed onto a glass slide and spread out using a glass rod to give a thin coating smear on the glass. After the mixture fully cured (5 minutes) 100 μL of suspension of S. aureus bacteria at 10^6 CFU/mL was placed onto the cured sealant and visually observed for any color change. […] No color change or development was observed when the color media or water was placed on the sealant film.
A 2 gram sample of 300 ppm Eriochrome Blue Black B (from Sigma-Aldrich) in InteguSeal® skin sealant was prepared by mixing the ingredients to give a gray-blue mixture. 25 mg of the mixture was placed on a glass slide and spread with a glass rod to give a thin smear. The film was allowed to fully cure (5 minutes) and then 100 μL of S. aureus suspension at 10^6 CFU/mL was applied to the cured film and observed for a color change. […] No color change was observed when control media or water was applied to the film.

S. aureus [2] = test: Color change measurement with spectrometer (Minolta cm-2600d), film area before and after exposure to microbes; conditions: CIELAB, cured InteguSeal film before vs after exposure to microbes
Source text: The color change inherent in the skin coating with indicator may be considered as a visual indicator with the user visually observing a color change as a signal that infection or microbial contamination is present, or the color change could also be measured electronically. Such measurements could be conducted using an optical device or other spectroscopic methods known to those skilled in the art to measure changes in color such as spectrophotometers and spectrodenitometers. The instruments measure color space (as described in “Pocket guide to digital printing” (1997) by Frank Cost, Delmar Publishers Inc., at page 144), the most widely used color space is CIELAB. This defines three variables, L*, a*, and b*, that have the following meaning:
Because CIELAB color space is somewhat uniform, a single number can be calculated that represents the difference between two colors as perceived by the human being. This difference is termed ΔE and is calculated by taking the square root of the sum of the squares of the three differences (ΔL*, Δa*, and Δb*) between the two colors (i.e. starting color and after color change).
Although in each of the examples described above the color change when in contact with microbes was clearly visible it would also be possible to measure this color change with an optical color change meter or sensor. This was conduced on Examples 1, 2, and 3 by illustration. The color change was measured using a spectrometer (Minolta cm-2600d. Minolta Co., Japan) and the reading obtained by measuring the film area before and after exposure to microbes. The reading was recorded in units of ΔE.

E. coli = test: Colour change of cured film containing indicator dye on contact with E. coli suspension; conditions: for time to visible color change of film / visually observed color change: 100 μL E. coli 10^5 CFU/mL on cured InteguSeal film, dye 200-300 ppm
Procedure: as §1, with “E. coli” for “S. aureus”, “10^5” for “10^6”
(§2) Reichardt's dye (from Sigma-Aldrich) was mixed into 2 grams of InteguSeal® skin sealant containing an extra 0.2 gram of tributyl o-acetylcitrate placticizer (from Sigma-Aldrich) to give a deep blue solution with 200 ppm concentration of the dye. A drop (25 mg) of the mixture was then placed onto a microscope glass slide (5 cm×7.5 cm) and spread out using a glass rod to give thin coating smear (3 cm×2 cm). After complete cure had occurred (5 minutes) the cured film was exposed to a suspension of E. coli (gram negative bacteria) at 10^5 CFU/mL (colony forming units). 100 μL of this suspension was placed onto a spot on the cured film and the area observed. In less than 10 seconds the area in contact with the bacteria suspension decolorized, visually indicating the contamination. When a 100 μL sample of the control media broth or water alone was placed on the sealant no color discharge was observed. On a separate untouched part of the cured film was placed 100 μL suspension of A. niger (mold) at 10^5 CFU/mL and the area again observed. In less than 10 seconds the Reichardt's dye had decolorized where the mold suspension was in contact with the film.
Phenol red was dissolved in 3 other curable resins at a concentration of 300 ppm and tested with E. coli as described in example 5 above. The resins tried were: • Elmer's glue-all (Elmer's Products Inc., Columbus Ohio) • Contact cement (DAP Weldwood Inc., Dayton, Ohio) • Gelatin USP (unflavored. The Kroger Co., Cincinnati, Ohio) 100 μL suspension of E. coli was then placed on the cured film and visually observed. In all three resins the area in direct contact with the bacteria suspension turned red.

A. niger = test: Colour change of cured skin sealant film containing indicator dye on contact with A. niger suspension; conditions: 100 μL A. niger (mold) 10^5 CFU/mL on cured InteguSeal film, dye 200 ppm
Procedure: as §2

SMILES	time to visible color change of film (S. aureus [1])	visually observed color change (S. aureus [1])	color change ΔE (S. aureus [2])	time to visible color change of film (E. coli)	visually observed color change (E. coli)	visually observed color change in other curable resins (E. coli; 300 ppm dye in Elmer's glue-all, Contact cement, Gelatin USP, 100 μL E. coli suspension on cured film, all three resins)	time to visible color change of film (A. niger)	visually observed color change (A. niger)
O=S1(=O)OC(c2ccc(O)cc2)(c2ccc(O)cc2)c2ccccc21 [Phenol Red, phenolsulfonephthalein]	less than 5 seconds	bright red color developed	35 ΔE	less than 5 seconds	bright red color developed	turned red		
O=S(=O)([O-])c1cc(O)c(/N=N/c2ccc3ccccc3c2O)c2ccccc12.[Na+] [Eriochrome Blue Black B]	less than 5 seconds	film color was discharged to leave a colorless spot						
CC1=C/C(=C(\c2cc(C)c(O)c(C(=O)[O-])c2)c2c(Cl)ccc(S(=O)(=O)[O-])c2Cl)C=C(C(=O)[O-])C1=O.[Na+].[Na+].[Na+] [Chrome Azurol S]	≤ 5 s	red color developed	27 ΔE					
[O-]c1c(-c2ccccc2)cc(-[n+]2c(-c3ccccc3)cc(-c3ccccc3)cc2-c2ccccc2)cc1-c1ccccc1 [Reichardt's dye, 4-(2,4,6-triphenylpyridinium-1-yl)-2,6-diphenylphenolate]	less than 10 seconds	decolorized	32 ΔE	less than 10 seconds	decolorized		less than 10 seconds	decolorized
